According to ChEMBL document CHEMBL1201862, “PubChem BioAssay data set” (2004):
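Grown in 96-well plates, cells were treated for 48 hours with each compound at five concentrations. Insufficient inhibition: endpoint recorded as highest concentration tested. GI50 = concentration required for 50% inhibition of growth.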 Activity calls are given as the source filed them. Cut-off read from the data, not from the text of the source: active = GI50 up to about 1.1 µM and inactive = higher.

What was measured:
Test in all cases: DTP human tumour cell line panel, 48 h
NCI-H23 = tested on: NCI-H23
786-0 = tested on: 786-0
OVCAR-3 = tested on: OVCAR-3
SK-OV-3 = tested on: SK-OV-3
M14 = tested on: M14
HOP-62 = tested on: HOP-62
IGROV-1 = tested on: IGROV-1
SW-620 = tested on: SW-620
SR = tested on: SR
OVCAR-8 = tested on: OVCAR-8
CAKI-1 = tested on: CAKI-1
NCI-H226 = tested on: NCI-H226
UACC-62 = tested on: UACC-62
U-251 = tested on: U-251
MDA-MB-435 = tested on: MDA-MB-435
DU-145 = tested on: DU-145
TK-10 = tested on: TK-10
HCT-15 = tested on: HCT-15
MCF7 = tested on: MCF7
CCRF-CEM = tested on: CCRF-CEM
HT-29 = tested on: HT-29
PC-3 = tested on: PC-3
MOLT-4 = tested on: MOLT-4
SNB-75 = tested on: SNB-75
MDA-N = tested on: MDA-N
MDA-MB-231 = tested on: MDA-MB-231
NCI-H460 = tested on: NCI-H460
ACHN = tested on: ACHN
HL-60 = tested on: HL-60
Malme-3M = tested on: Malme-3M
NCI/ADR-RES = tested on: NCI/ADR-RES
SK-MEL-5 = tested on: SK-MEL-5
BT-549 = tested on: BT-549
EKVX = tested on: EKVX
SNB-19 = tested on: SNB-19
SN12C = tested on: SN12C
LOX IMVI = tested on: LOX IMVI
T47D = tested on: T47D
OVCAR-4 = tested on: OVCAR-4
RPMI-8226 = tested on: RPMI-8226
COLO 205 = tested on: COLO 205
HOP-92 = tested on: HOP-92
SK-MEL-2 = tested on: SK-MEL-2
NCI-H522 = tested on: NCI-H522
SF-268 = tested on: SF-268
OVCAR-5 = tested on: OVCAR-5
UO-31 = tested on: UO-31
SF-295 = tested on: SF-295
A549 = tested on: A549
RXF 393 = tested on: RXF 393
K562 = tested on: K562
SF-539 = tested on: SF-539
SK-MEL-28 = tested on: SK-MEL-28
KM12 = tested on: KM12
A498 = tested on: A498
Hs-578T = tested on: Hs-578T
HCT-116 = tested on: HCT-116
UACC-257 = tested on: UACC-257
HCC 2998 = tested on: HCC 2998

For `C1CCNCC1.Oc1ncnc2[nH]cc(CN3CCCCC3)c12`, the GI50 (NCI-H23) was > 100 µM (inactive), the GI50 (786-0) was 22.9 µM (inactive) and the GI50 (OVCAR-3) was > 100 µM (inactive). The GI50 (SK-OV-3) was > 100 µM (inactive), the GI50 (M14) was > 100 µM (inactive) and the GI50 (HOP-62) was > 100 µM (inactive). The GI50 (IGROV-1) was > 100 µM (inactive), the GI50 (SW-620) was 38 µM (inactive) and the GI50 (SR) was 37.7 µM (inactive). The GI50 (OVCAR-8) was > 100 µM (inactive), the GI50 (CAKI-1) was > 100 µM (inactive) and the GI50 (NCI-H226) was > 100 µM (inactive). For the same molecule, the GI50 (UACC-62) was 83.9 µM (inactive), the GI50 (U-251) was > 100 µM (inactive) and the GI50 (MDA-MB-435) was > 100 µM (inactive). For the same molecule, the GI50 (DU-145) was 32.5 µM (inactive), the GI50 (TK-10) was 46 µM (inactive) and the GI50 (HCT-15) was greater than 100 µM. For the same molecule, the GI50 (MCF7) was 28.8 µM (inactive), the GI50 (CCRF-CEM) was 16.4 µM (inactive) and the GI50 (HT-29) was 39.3 µM (inactive). For the same molecule, the GI50 (PC-3) was > 100 µM (inactive), the GI50 (MOLT-4) was 15.2 µM (inactive) and the GI50 (SNB-75) was 55.5 µM (inactive). The GI50 (MDA-N) was 30.4 µM (inactive), the GI50 (MDA-MB-231) was > 100 µM (inactive) and the GI50 (NCI-H460) was 16 µM (inactive). The GI50 (ACHN) was 98.4 µM (inactive), the GI50 (HL-60) was 19.8 µM (inactive) and the GI50 (Malme-3M) was 64.9 µM (inactive). The GI50 (NCI/ADR-RES) was > 100 µM (inactive), the GI50 (SK-MEL-5) was > 100 µM (inactive) and the GI50 (BT-549) was > 100 µM (inactive). The GI50 (EKVX) was > 100 µM (inactive), the GI50 (SNB-19) was > 100 µM (inactive) and the GI50 (SN12C) was 48.8 µM (inactive). The GI50 (LOX IMVI) was > 100 µM (inactive), the GI50 (T47D) was 57.9 µM (inactive) and the GI50 (OVCAR-4) was 62.4 µM (inactive). The GI50 (RPMI-8226) was 22 µM (inactive), the GI50 (COLO 205) was 73.3 µM (inactive) and the GI50 (HOP-92) was 77.3 µM (inactive). For the same molecule, the GI50 (SK-MEL-2) was > 100 µM (inactive), the GI50 (NCI-H522) was 86.3 µM (inactive) and the GI50 (SF-268) was 87.9 µM (inactive). For the same molecule, the GI50 (OVCAR-5) was > 100 µM (inactive), the GI50 (UO-31) was 85.3 µM (inactive) and the GI50 (SF-295) was > 100 µM (inactive). For the same molecule, the GI50 (A549) was > 100 µM (inactive), the GI50 (RXF 393) was 43.8 µM (inactive) and the GI50 (K562) was > 100 µM (inactive). For the same molecule, the GI50 (SF-539) was 71.4 µM (inactive), the GI50 (SK-MEL-28) was > 100 µM (inactive) and the GI50 (KM12) was > 100 µM (inactive). For the same molecule, the GI50 (A498) was > 100 µM (inactive), the GI50 (Hs-578T) was > 100 µM (inactive) and the GI50 (HCT-116) was 15.7 µM (inactive). For the same molecule, the GI50 (UACC-257) was 21.5 µM (inactive).
With `CNC(=O)CCC(NC(=O)OC(C)(C)C)C(=O)NC(Cc1ccc(NC(=O)CCCCC(C)=O)cc1)C(=O)NCC(=O)NC` (stereo unspecified) the GI50 (NCI-H23) was > 100 µM (inactive), the GI50 (786-0) was > 100 µM (inactive) and the GI50 (OVCAR-3) was > 100 µM (inactive). The GI50 (SK-OV-3) was > 100 µM (inactive), the GI50 (M14) was > 100 µM (inactive) and the GI50 (HOP-62) was > 100 µM (inactive). For the same molecule, the GI50 (IGROV-1) was > 100 µM (inactive), the GI50 (SW-620) was > 100 µM (inactive) and the GI50 (SR) was > 100 µM (inactive). The GI50 (OVCAR-8) was > 100 µM (inactive), the GI50 (CAKI-1) was > 100 µM (inactive) and the GI50 (HCC 2998) was > 100 µM (inactive). For the same molecule, the GI50 (NCI-H226) was > 100 µM (inactive), the GI50 (UACC-62) was > 100 µM (inactive) and the GI50 (U-251) was > 100 µM (inactive). The GI50 (MDA-MB-435) was > 100 µM (inactive), the GI50 (DU-145) was > 100 µM (inactive) and the GI50 (TK-10) was > 100 µM (inactive). For the same molecule, the GI50 (HCT-15) was greater than 100 µM, the GI50 (MCF7) was > 100 µM (inactive) and the GI50 (HT-29) was > 100 µM (inactive). For the same molecule, the GI50 (PC-3) was > 100 µM (inactive), the GI50 (MOLT-4) was > 100 µM (inactive) and the GI50 (SNB-75) was > 100 µM (inactive). The GI50 (MDA-N) was > 100 µM (inactive), the GI50 (MDA-MB-231) was > 100 µM (inactive) and the GI50 (NCI-H460) was > 100 µM (inactive). The GI50 (ACHN) was > 100 µM (inactive), the GI50 (HL-60) was > 100 µM (inactive) and the GI50 (Malme-3M) was > 100 µM (inactive). The GI50 (NCI/ADR-RES) was > 100 µM (inactive), the GI50 (SK-MEL-5) was > 100 µM (inactive) and the GI50 (BT-549) was > 100 µM (inactive). For the same molecule, the GI50 (EKVX) was > 100 µM (inactive), the GI50 (SNB-19) was > 100 µM (inactive) and the GI50 (SN12C) was > 100 µM (inactive). For the same molecule, the GI50 (LOX IMVI) was > 100 µM (inactive), the GI50 (T47D) was > 100 µM (inactive) and the GI50 (OVCAR-4) was > 100 µM (inactive). For the same molecule, the GI50 (RPMI-8226) was > 100 µM (inactive), the GI50 (COLO 205) was > 100 µM (inactive) and the GI50 (HOP-92) was > 100 µM (inactive). For the same molecule, the GI50 (NCI-H522) was > 100 µM (inactive), the GI50 (SF-268) was > 100 µM (inactive) and the GI50 (OVCAR-5) was > 100 µM (inactive). The GI50 (UO-31) was > 100 µM (inactive), the GI50 (SF-295) was > 100 µM (inactive) and the GI50 (A549) was > 100 µM (inactive). The GI50 (RXF 393) was > 100 µM (inactive), the GI50 (K562) was > 100 µM (inactive) and the GI50 (SF-539) was > 100 µM (inactive). For the same molecule, the GI50 (SK-MEL-28) was > 100 µM (inactive), the GI50 (KM12) was > 100 µM (inactive) and the GI50 (A498) was > 100 µM (inactive). For the same molecule, the GI50 (Hs-578T) was > 100 µM (inactive) and the GI50 (HCT-116) was > 100 µM (inactive).
In the case of `Cc1cc(S(=O)(=O)Nc2nc3cccnc3[nH]2)c(S)cc1Cl`, the GI50 (NCI-H23) is reported as 97.5 µM (inactive), the GI50 (786-0) is reported as > 100 µM (inactive) and the GI50 (OVCAR-3) is reported as > 100 µM (inactive). The GI50 (SK-OV-3) was > 100 µM (inactive), the GI50 (M14) was > 100 µM (inactive) and the GI50 (HOP-62) was > 100 µM (inactive). For the same molecule, the GI50 (IGROV-1) was > 100 µM (inactive), the GI50 (SW-620) was > 100 µM (inactive) and the GI50 (SR) was > 100 µM (inactive). For the same molecule, the GI50 (OVCAR-8) was > 100 µM (inactive), the GI50 (CAKI-1) was > 100 µM (inactive) and the GI50 (HCC 2998) was > 100 µM (inactive). The GI50 (NCI-H226) was 52.2 µM (inactive), the GI50 (UACC-62) was 85.1 µM (inactive) and the GI50 (U-251) was 63.2 µM (inactive). For the same molecule, the GI50 (MDA-MB-435) was > 100 µM (inactive), the GI50 (DU-145) was > 100 µM (inactive) and the GI50 (TK-10) was > 100 µM (inactive). The GI50 (HCT-15) was 91 µM, the GI50 (MCF7) was > 100 µM (inactive) and the GI50 (CCRF-CEM) was > 100 µM (inactive). For the same molecule, the GI50 (HT-29) was > 100 µM (inactive), the GI50 (PC-3) was 92.3 µM (inactive) and the GI50 (MOLT-4) was > 100 µM (inactive). For the same molecule, the GI50 (SNB-75) was > 100 µM (inactive), the GI50 (MDA-N) was > 100 µM (inactive) and the GI50 (MDA-MB-231) was 45.3 µM (inactive). For the same molecule, the GI50 (NCI-H460) was 73.5 µM (inactive), the GI50 (ACHN) was > 100 µM (inactive) and the GI50 (HL-60) was > 100 µM (inactive). For the same molecule, the GI50 (Malme-3M) was > 100 µM (inactive), the GI50 (NCI/ADR-RES) was > 100 µM (inactive) and the GI50 (SK-MEL-5) was 71.9 µM (inactive). The GI50 (BT-549) was > 100 µM (inactive), the GI50 (EKVX) was > 100 µM (inactive) and the GI50 (SNB-19) was 77.8 µM (inactive). For the same molecule, the GI50 (SN12C) was > 100 µM (inactive), the GI50 (LOX IMVI) was 83 µM (inactive) and the GI50 (T47D) was 46.8 µM (inactive). The GI50 (OVCAR-4) was 79.4 µM (inactive), the GI50 (RPMI-8226) was > 100 µM (inactive) and the GI50 (COLO 205) was > 100 µM (inactive). For the same molecule, the GI50 (HOP-92) was > 100 µM (inactive), the GI50 (NCI-H522) was 70.5 µM (inactive) and the GI50 (SF-268) was 79.1 µM (inactive). The GI50 (OVCAR-5) was > 100 µM (inactive), the GI50 (SF-295) was 58.1 µM (inactive) and the GI50 (A549) was 75 µM (inactive). For the same molecule, the GI50 (RXF 393) was > 100 µM (inactive), the GI50 (K562) was > 100 µM (inactive) and the GI50 (SF-539) was > 100 µM (inactive). For the same molecule, the GI50 (SK-MEL-28) was > 100 µM (inactive), the GI50 (KM12) was > 100 µM (inactive) and the GI50 (A498) was > 100 µM (inactive). The GI50 (Hs-578T) was 74 µM (inactive), the GI50 (HCT-116) was > 100 µM (inactive) and the GI50 (UACC-257) was > 100 µM (inactive).
